Experimental data published in patent US20150071918A1, “PEPTIDES FOR THE TREATMENT OF CANCER” (H. LEE MOFFITT CANCER CENTER AND RESEARCH INSTITUTE, INC., priority 2012, published 2015).
“Also recorded” adds a separate entry of the source. *1 amine or outer side, *2 acyl side, *3 side chain or, on linkers, in order; H or OH if unused. Where a SMILES comes first, the peptide text is derived from it. Bridges are numbered along the chain shown (N, C = ends). [ ]: non-standard residue; d: D form. The star is where a group is joined. dProlinol(O-CH2CO) = O=C(COC[C@H]1CCCN1[*:1])[*:2]; N(2-Aminoethyl)Gly = O=C(CN(CCN[*:3])[*:1])[*:2]; Nle = CCCC[C@H](N)C(=O)O; Ms = CS(=O)(=O)*

Columns and labels:
[1] = tested on: H929 myeloma cells; assay type: cell-based, human; details: H929 cells
Outline: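 Cells exposed to a peptide concentration series for 24 h; cell death read by Topro-3 staining and FACS. IC50 from linear regression of dose-response curves, mean of 3 independent experiments.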

[2] = tested on: CD34+ cells from primary AML samples; experiment: Cell death in primary CD34+ AML cells; assay type: cell-based, human; details: 24 hours
Protocol: (§1) FIG. 45. Primary CD34+AML cells are sensitive to HM-27 (MTI-101) while their normal counterparts are not. Enriched CD34+ cells from peripheral blood and bone marrow of normal individuals were treated with varying doses of HM-27 for 24 hours and then analyzed for cell death as described in the Materials and Methods.
(§2) FIG. 64. MTI-101 induces cell death in primary CD34 progenitor cells from AML patient. […] CD34-positive cells were enriched using immunomagnetic beads in primary AML samples and normal bone marrow aspirates. Cell death was measured by annexin V positivity and FACS analysis.
(§3) Cells were collected after incubation with HM-27 and analyzed for markers of cell death indicative of either apoptosis, autophagy or necrosis. BM-MNCs were isolated from marrow aspirates of AML patients and normal individuals by Ficoll-Paque centrifugation and further enriched for CD34+ cells using immunomagnetic beads. Cell death was assessed by TO-PRO-3 staining followed by FACS analysis.

[3] = tested on: U937 cells co-cultured with HS-5/GFP cells; experiment: Co-culture bone marrow stroma (HS-5/GFP) model of drug resistance (CAM-DR), annexin V and FACS; assay type: cell-based; details: HS-5/GFP co-culture 24 hours prior to drug
Protocol: FIGS. 63A-63C. MTI-101 induces cell death in AML cell lines without succumbing to CAM-DR. HS-5/GFP cells were co-cultured with U937 cells for 24 hours prior to addition of 100 nM Mitoxantrone (FIG. 63A) or varying concentrations of MTI-101 (FIG. 63B). […] Cell death was measured in the GFP negative AML cells using annexin V to detect dead cells and FACS analysis. Cells cultured in suspension were used as a reference sample for drug sensitivity.

[4] = tested on: CD138 cells from newly diagnosed or relapsed patients; experiment: Cell death in CD138 cells enriched from bone marrow aspirates of myeloma patients, annexin V and FACS, 24 hours; assay type: cell-based, human; details: 10 μM MTI-101, 24 hours
Protocol: FIGS. 60A-60D. CD138 cells were enriched from the bone marrow aspirates of consented newly diagnosed or relapsed patients and were treated with 10 μM MTI-101, 10 μM Chloroquine or 10 nM Bortezomib or the combination of both agents. Following 24 hours of drug treatment, dell death was measured by annexin V staining and FACS analysis.

[5] = tested on: 5TGM1 cells; experiment: 5TGM1 murine in vivo myeloma model, survival; set-up: species or system C57BL/KaLwRij mice; details: 5TGM1 model, dosing 3× weekly for three weeks
Protocol: FIG. 61B: 5TGM1 model: One million 5TGM1 cells were injected i.v. in C57BL/KaLwRij mice and allowed to engraft for 10 days prior to drug treatment. The dosing scheme for all drugs was 3× weekly for three weeks. Surrogate markers of morbidity include hind leg paralysis and/or lethargic behavior. All mice were euthanatized at day 100.
One million 5TGM1 cells were injected i.v. in C57BL/KaLwRij mice and allowed to engraft for 10 days prior to drug treatment. […] The dosing scheme for melphalan was twice (day 10 and day 14).

[6] = tested on: pPyk2, pAkt and pErk1/2 in U937 or HL-60 cells; experiment: Western blot of signaling in AML cells after peptide treatment; assay type: cell-based; details: U937 or HL-60, 50 μM MTI-101, western blot
Protocol: FIG. 44. U937 or HL-60 cells were treated with 50 μM MTI-101 for the indicated times and pPyk2, pAkt and pErk1/2 were detected by western blot analysis.
Consistent with data obtained with the linear peptide, we show CD44 and VLA-4 are pulled down using biotin conjugated HM-27 as bait.

[7] = tested on: phospho-ERK and CD44-associated PYK2 in NCI-H929 and U266 MM cells; experiment: Signal transduction in MM cells (pErk, CD44 immunoprecipitation probed for Pyk2, Src); assay type: cell-based; details: 5 uM H929 and 10 uM U226 cells
Protocol: FIGS. 55A-55D. […] NCI-H929 and U266 were treated with 5 uM and 10 uM HM-27 respectively for various time points before whole cell lysis in RIPA buffer and probed for pErk and tErk (FIGS. 55A, 55B).
FIGS. 58A-58D. […] MTI-101 activates ERK and Pyk2. Member of these pathways can be utilized as biomarkers of response. In addition, agents that target survival pathways can be used in combination with MTI-101 (data supporting this in AML).
The inventors performed a total membrane binding assay with biotin conjugated HYD1 and NeutrAvidin beads on NCI-H929 and U266 MM cells. Samples were then loaded on an SDS-PAGE gel, trypsin digested, and analyzed by Liquid Chromatography-Mass Spectrometry/Mass Spectrometry (LC-MS/MS). The adhesion receptor CD44 was determined to be among the adhesion receptors that had the most peptide match hits and was confirmed as a valid hit via Western Blot analysis using biotin as a control for non-specific binding. In order to assess the binding between CD44 and HYD1, 96-well NeutrAvidin coated plates were preincubated with biotin-HYD1 before the addition of increasing concentrations of full length recombinant human CD44. For more quantitative binding affinity analysis we produced the human globular ectodomain of CD44 comprising of amino acids 20-178. […]

[8] = tested on: normal CD34-positive cells; experiment: Cell death in CD34+ cells from normal individuals; assay type: cell-based, human; details: 24 hours
Protocol: as §1, §2, §3

## CCCC[C@@H]1NC(=O)CN(S(C)(=O)=O)CCNC(=O)[C@H](CCCCN)NC(=O)[C@H](CC(C)C)NC(=O)[C@H](CCCCN)NC(=O)[C@H](CC(C)C)NC(=O)[C@H](CCCCN)NC(=O)COC[C@H]2CCCN2C(=O)[C@H](Cc2c[nH]c3ccccc23)NC(=O)[C@H](C)NC(=O)[C@H](C(C)C)NC(=O)[C@H](C(C)C)NC1=O [MTI-101] (Ms-[N(2-Aminoethyl)Gly][Nle]VVAW[dProlinol(O-CH2CO)]KLKLK; lactam 1-C)
[1]; read-out: IC50
  IC50: 1200 nM
[1]; reference of the 10- and 15-fold statements not expressly named
  fold more potent than linear HYD1: 30 fold
[2]
  cell death in primary AML CD34+ cells: Primary AML specimens are sensitive to MTI-101 induced cell death
[2]; listed as HM-27
  cell death in primary AML CD34+ cells: CD34+ cells from primary AML samples are sensitive to HM-27; also recorded: increased potency in samples from relapsed patients compared to specimens obtained from the newly diagnosed
[3]
  sensitivity in co-culture versus suspension: not resistant in the co-culture bone marrow stroma model of drug resistance
[4]; newly diagnosed patients
  effect of 10 nM Bortezomib on MTI-101 activity: increased the activity of MTI-101 in primary patient specimens obtained from newly diagnosed patients
[4]; relapsed myeloma patients
  effect of 10 μM Chloroquine on MTI-101 induced cell death: increased the activity of MTI-101 induced cell death in specimens obtained from relapsed myeloma patients
[4]; relapsed vs newly diagnosed
  activity in primary patient specimens: more active in specimens obtained from relapsed multiple myeloma (MM) patients
[5]
  survival: increases survival in the 5TGM1 murine in vivo model
[6]
  phospho-protein levels in AML cells: increased the levels of pPyk2 and pErk1/2, but not pAKT
[6]; listed as HM-27
  phospho-protein levels in AML cells: induced an early activation of Erk1/2 in AML cells
[7]
  phospho-ERK and CD44-associated PYK2 in MM cells: induces transient phospho-ERK and CD44-associated PYK2 complex in NCI-H929 and U266 MM cells
[8]
  cell death in normal CD34+ cells: devoid of activity in normal CD34-positive cells
[8]; listed as HM-27
  cell death in normal CD34+ cells: CD34+ cells from normal individuals are not sensitive to HM-27
